Legend:
Type in all cases: functional
Leishmania donovani [1] = test: Antileishmanial activity against Leishmania donovani LCR-L133 amastigotes at 100 ug/ml after 72 hrs relative to control
Leishmania donovani [2] = test: Antileishmanial activity against Leishmania donovani LCR-L133 amastigotes at 10 ug/ml after 24 hrs relative to control
Leishmania donovani [3] = test: Antileishmanial activity against Leishmania donovani LCR-L133 promastigotes at 10 […] after 72 hrs relative to control
Leishmania donovani [4] = test: Antileishmanial activity against Leishmania donovani LCR-L133 amastigotes at 10 ug/ml after 72 hrs relative to control
Leishmania donovani [5] = test: Antileishmanial activity against Leishmania donovani LCR-L133 promastigotes at 100 […] after 72 hrs relative to control
Leishmania donovani [6] = test: Antileishmanial activity against Leishmania donovani LCR-L133 promastigotes at 1 […] after 48 hrs relative to control
Leishmania donovani [7] = test: Antileishmanial activity against Leishmania donovani LCR-L133 amastigotes at 100 ug/ml after 48 hrs relative to control
Leishmania donovani [8] = test: Antileishmanial activity against Leishmania donovani LCR-L133 amastigotes at 100 ug/ml after 24 hrs relative to control
Leishmania donovani [9] = test: Antileishmanial activity against Leishmania donovani LCR-L133 amastigotes at 10 ug/ml after 48 hrs relative to control
Leishmania donovani [10] = test: Antileishmanial activity against Leishmania donovani LCR-L133 promastigotes at 1 […] after 24 hrs relative to control
Leishmania donovani [11] = test: Antileishmanial activity against Leishmania donovani LCR-L133 amastigotes at 1 ug/ml after 72 hrs relative to control
Leishmania donovani [12] = test: Antileishmanial activity against Leishmania donovani LCR-L133 promastigotes at 100 […] after 48 hrs relative to control
Leishmania donovani [13] = test: Antileishmanial activity against Leishmania donovani LCR-L133 amastigotes at 1 ug/ml after 24 hrs relative to control
Leishmania donovani [14] = test: Antileishmanial activity against Leishmania donovani LCR-L133 promastigotes at 10 […] after 24 hrs relative to control
Leishmania donovani [15] = test: Antileishmanial activity against Leishmania donovani LCR-L133 amastigotes at 1 ug/ml after 48 hrs relative to control
Leishmania donovani [16] = test: Antileishmanial activity against Leishmania donovani LCR-L133 promastigotes at 10 […] after 48 hrs relative to control
Leishmania donovani [17] = test: Antileishmanial activity against Leishmania donovani LCR-L133 promastigotes at 1 […] after 72 hrs relative to control
Leishmania donovani [18] = test: Antileishmanial activity against Leishmania donovani LCR-L133 promastigotes at 100 […] after 24 hrs relative to control

Compound	Activity (Leishmania donovani [1]) [%]	Activity (Leishmania donovani [2]) [%]	Activity (Leishmania donovani [3]) [%]	Activity (Leishmania donovani [4]) [%]	Activity (Leishmania donovani [5]) [%]	Activity (Leishmania donovani [6]) [%]	Activity (Leishmania donovani [7]) [%]	Activity (Leishmania donovani [8]) [%]	Activity (Leishmania donovani [9]) [%]	Activity (Leishmania donovani [10]) [%]	Activity (Leishmania donovani [11]) [%]	Activity (Leishmania donovani [12]) [%]	Activity (Leishmania donovani [13]) [%]	Activity (Leishmania donovani [14]) [%]	Activity (Leishmania donovani [15]) [%]	Activity (Leishmania donovani [16]) [%]	Activity (Leishmania donovani [17]) [%]	Activity (Leishmania donovani [18]) [%]
C=C[C@]1(CO)CC[C@H]2[C@]3(C)CCC(=O)[C@](C)(C(=O)OC)[C@H]3CC[C@]2(C)O1	19	0	0	0	34	0	14	9	0	0	0	22	0	0	0	0	0	0
C=C[C@@]1(C)CC[C@H]2[C@]3(C)CC[C@@H](O)C(C)(C)[C@H]3[C@@H](O)C[C@]2(C)O1	67	10	0	33	0	0	51	34	24	0	14	52	0	0	0	0	0	0
C=C[C@@]1(CO)CC[C@H]2[C@]3(C)CCC[C@](C)(C(=O)OC)[C@H]3CC[C@]2(C)O1	67	17	0	35	79	0	58	47	26	0	13	62	0	0	12	0	0	0
C=C[C@@]1(C)CC[C@H]2[C@]3(C)CC[C@@H](O)C(C)(C)[C@H]3CC[C@]2(C)O1	39	0	0	18	52	0	25	17	13	0	0	70	0	0	7	0	0	27
C=C[C@]1(C)O[C@@]2(C)CC[C@@H]3C(C)(C)[C@H](O)CC[C@@]3(C)[C@@H]2C[C@H]1O [VARODIOL]	33	0	0	12	0	0	29	12	7	0	0	63	0	0	0	0	0	0
C=C[C@]1(C)O[C@@]2(C)C[C@H](O)[C@@H]3C(C)(C)[C@H](O)CC[C@@]3(C)[C@@H]2CC1=O	19	0	0	0	0	0	15	14	0	0	0	0	0	0	0	0	0	0
C=C[C@]1(C)O[C@@]2(C)CC[C@@H]3C(C)(C)[C@H](O)CC[C@@]3(C)[C@@H]2C[C@@H]1O	35	0	0	11	0	0	31	15	6	0	0	31	0	0	0	0	0	0
C=C[C@]1(C)O[C@@]2(C)CC[C@@H]3C(C)(C)[C@@H](OC(C)=O)CC[C@@]3(C)C2=CC1=O	50	12	0	34	100	0	45	32	21	0	12	100	0	0	0	0	0	100
C=C[C@]1(C)O[C@@]2(C)CC[C@@H]3C(C)(C)C(=O)CC[C@@]3(C)[C@@H]2CC1=O	36	0	0	11	0	0	31	22	7	0	0	25	0	0	0	0	0	0
C=C[C@]1(C)O[C@@]2(C)C[C@H](O)[C@@H]3C(C)(C)[C@H](O)CC[C@@]3(C)[C@@H]2C[C@@H]1O	50	7	0	16	0	0	46	35	11	0	0	0	0	0	0	0	0	0
C=C[C@@]1(C)CC[C@H]2[C@]3(C)CCC(=O)C(C)(C)[C@H]3CC[C@]2(C)O1	56	7	0	25	80	0	48	20	17	0	10	86	0	0	10	0	0	51
MEGLUMINE ANTIMONATE			42		76	20				4		74		28		40	39	70

From ChEMBL document CHEMBL1145677, “In Vitro Action of ent -Manoyl Oxides against Leishmania donovani” (1997)
